Results from ChEMBL document CHEMBL4316596, “Antimicrobial Peptides with High Proteolytic Resistance for Combating Gram-Negative Bacteria” (J Med Chem, 2019).
Calls of active or inactive are those of the source. No cut-off for these calls is given here.

Tests used:
[1] = Cytotoxicity against IPECJ2 cells assessed as cell death after 18 to 24 hrs by MTT assay; type: cell-based; conditions: Sus scrofa, IPEC-J2
Escherichia coli [2] = experiment: Bactericidal activity against Escherichia coli ATCC 25922 incubated for 4 hrs followed by culture spread on agar plates and cultured overnight in presence of 4 mg/ml pepsin; type: functional, organism-based
[3] = Antimicrobial activity against Salmonella pullorum C7913 after 24 hrs by NCCLS-protocol based assay; type: functional, Salmonella enterica subsp. enterica serovar Pullorum; conditions: Salmonella enterica, C7913, 24 h
Erythrocyte = experiment: Hemolytic activity against human RBC after 1 hr; type: ADME, cell-based
Salmonella typhimurium [4] = experiment: Bactericidal activity against Salmonella typhimurium ATCC 14028 incubated for 4 hrs followed by culture spread on agar plates and cultured overnight; type: functional, Salmonella enterica subsp. enterica serovar Typhimurium; conditions: Salmonella enterica, ATCC 14028, 4 h; read-out: MBC>99.9
Escherichia coli [5] = experiment: Antimicrobial activity against Escherichia coli K99 after 24 hrs by NCCLS-protocol based assay; type: functional; conditions: K99, 24 h
Escherichia coli [6] = experiment: Antibacterial activity against Escherichia coli ATCC 25922 infected in ICR mouse assessed as log reduction in bacterial cells in peritoneal cavity at 5 mg/kg, ip administered at 5 mg/kg, ip dosed at 0.5, 2, 4 and 8 hrs post-infection; type: functional
Escherichia coli [7] = experiment: Antibacterial activity against Escherichia coli ATCC 25922 infected in ICR mouse assessed as log reduction in bacterial cells in liver at 5 mg/kg, ip administered at 5 mg/kg, ip dosed at 0.5, 2, 4 and 8 hrs post-infection; type: functional
Trypsin = Trypsin (Homo sapiens, UniProt P07477+P07478+P35030); experiment: Stability of the compound assessed as trypsin (unknown origin)-mediated compound hydrolysis after 8 hrs by SDS-PAGE analysis; type: ADME, protein assay
Escherichia coli [8] = experiment: Bactericidal activity against Escherichia coli ATCC 25922 incubated for 4 hrs followed by culture spread on agar plates and cultured overnight in presence of 0.25 mg/ml trypsin; type: functional; conditions: ATCC 25922, 4 h, read-out: MBC>99.9
Escherichia coli [9] = experiment: Bactericidal activity against Escherichia coli ATCC 25922 incubated for 4 hrs followed by culture spread on agar plates and cultured overnight in presence of NaCl; type: functional; conditions: ATCC 25922, 4 h, read-out: MBC>99.9
Pseudomonas aeruginosa [10] = experiment: Bactericidal activity against Pseudomonas aeruginosa ATCC 27853 incubated for 4 hrs followed by culture spread on agar plates and cultured overnight; type: functional; conditions: ATCC 27853, 4 h, read-out: MBC>99.9
Escherichia coli [11] = experiment: Bactericidal activity against Escherichia coli ATCC 25922 incubated for 4 hrs followed by culture spread on agar plates and cultured overnight in presence of 2 mg/ml chymotrypsin; type: functional; conditions: ATCC 25922, 4 h, read-out: MBC>99.9
Salmonella typhimurium [12] = experiment: Antimicrobial activity against Salmonella typhimurium C7731 after 24 hrs by NCCLS-protocol based assay; type: functional, Salmonella enterica subsp. enterica serovar Typhimurium; conditions: Salmonella enterica, C7731, 24 h
Escherichia coli [13] = experiment: Bactericidal activity against Escherichia coli ATCC 25922 incubated for 4 hrs followed by culture spread on agar plates and cultured overnight in presence of 0.125 mg/ml chymotrypsin; type: functional; conditions: ATCC 25922, 4 h, read-out: MBC>99.9
Escherichia coli [14] = experiment: Bactericidal activity against Escherichia coli K88 incubated for 4 hrs followed by culture spread on agar plates and cultured overnight; type: functional; conditions: K88, 4 h, read-out: MBC>99.9
Escherichia coli [15] = experiment: Bactericidal activity against Escherichia coli ATCC 25922 incubated for 4 hrs followed by culture spread on agar plates and cultured overnight in presence of MgCl2; type: functional; conditions: ATCC 25922, 4 h, read-out: MBC>99.9
[16] = Bactericidal activity against Salmonella pullorum C7913 incubated for 4 hrs followed by culture spread on agar plates and cultured overnight; type: functional, Salmonella enterica subsp. enterica serovar Pullorum; conditions: Salmonella enterica, C7913, 4 h; read-out: MBC>99.9
[17] = Selectivity ratio of IC50 for pig IPECJ2 cells to geometric mean of the peptide MBC for bacteria
Escherichia coli [18] = experiment: Bactericidal activity against Escherichia coli ATCC 25922 incubated for 4 hrs followed by culture spread on agar plates and cultured overnight in presence of KCl; type: functional; conditions: ATCC 25922, 4 h, read-out: MBC>99.9
Escherichia coli [19] = experiment: Bactericidal activity against Escherichia coli ATCC 25922 incubated for 4 hrs followed by culture spread on agar plates and cultured overnight in presence of ZnCl2; type: functional; conditions: ATCC 25922, 4 h, read-out: MBC>99.9
[20] = Stability of the compound assessed as pepsin (unknown origin)-mediated compound hydrolysis after 8 hrs by SDS-PAGE analysis; type: ADME; conditions: human
Escherichia coli [21] = experiment: Bactericidal activity against Escherichia coli ATCC 25922 incubated for 4 hrs followed by culture spread on agar plates and cultured overnight; type: functional; conditions: ATCC 25922, 4 h, read-out: MBC>99.9
Escherichia coli [22] = experiment: Bactericidal activity against Escherichia coli UB1005 incubated for 4 hrs followed by culture spread on agar plates and cultured overnight; type: functional; conditions: UB1005, 4 h, read-out: MBC>99.9
Escherichia coli [23] = experiment: Bactericidal activity against Escherichia coli ATCC 25922 incubated for 4 hrs followed by culture spread on agar plates and cultured overnight in presence of 0.25 mg/ml chymotrypsin; type: functional; conditions: ATCC 25922, 4 h, read-out: MBC>99.9
Pseudomonas aeruginosa [24] = experiment: Antimicrobial activity against Pseudomonas aeruginosa PAO1 after 24 hrs by NCCLS-protocol based assay; type: functional; conditions: PAO1, 24 h
Klebsiella pneumoniae = experiment: Antimicrobial activity against Klebsiella pneumoniae after 24 hrs by NCCLS-protocol based assay; type: functional
Escherichia coli [25] = experiment: Antibacterial activity against Escherichia coli ATCC 25922 infected in ICR mouse assessed as mouse survival at 5 mg/kg, ip dosed at 0.5, 2, 4 and 8 hrs post-infection; type: functional; conditions: ATCC 25922, ip
[26] = Selectivity ratio of IC50 for mouse RAW264.7 cells to geometric mean of the peptide MBC for bacteria
Pseudomonas aeruginosa [27] = experiment: Antimicrobial activity against Pseudomonas aeruginosa 26305 clinical isolates after 24 hrs by NCCLS-protocol based assay; type: functional; conditions: Pseudomonas aeruginosa, 26305, 24 h
Pseudomonas aeruginosa [28] = experiment: Bactericidal activity against Pseudomonas aeruginosa CICC 21630 clinical isolates incubated for 4 hrs followed by culture spread on agar plates and cultured overnight; type: functional; conditions: CICC 21630, 4 h, read-out: MBC>99.9
Pseudomonas aeruginosa [29] = experiment: Antimicrobial activity against Pseudomonas aeruginosa CICC 21630 clinical isolates after 24 hrs by NCCLS-protocol based assay; type: functional; conditions: CICC 21630, 24 h
Escherichia coli [30] = experiment: Bactericidal activity against Escherichia coli ATCC 25922 incubated for 4 hrs followed by culture spread on agar plates and cultured overnight in presence of CaCl2; type: functional; conditions: ATCC 25922, 4 h, read-out: MBC>99.9
[31] = Selectivity ratio of HC10 for human RBC to geometric mean of the peptide MBC for bacteria
Acinetobacter baumannii = experiment: Antimicrobial activity against Acinetobacter baumannii after 24 hrs by NCCLS-protocol based assay; type: functional
RAW264.7 = experiment: Cytotoxicity against mouse RAW264.7 cells assessed as cell death after 18 to 24 hrs by MTT assay; type: cell-based
Salmonella typhimurium [32] = experiment: Antimicrobial activity against Salmonella typhimurium ATCC 14028 after 24 hrs by NCCLS-protocol based assay; type: functional, Salmonella enterica subsp. enterica serovar Typhimurium; conditions: Salmonella enterica, ATCC 14028, 24 h
Escherichia coli [33] = experiment: Bactericidal activity against Escherichia coli 078 incubated for 4 hrs followed by culture spread on agar plates and cultured overnight; type: functional; conditions: Escherichia coli, 078, 4 h; read-out: MBC>99.9
Escherichia coli [34] = experiment: Bactericidal activity against Escherichia coli ATCC 25922 incubated for 4 hrs followed by culture spread on agar plates and cultured overnight in presence of 12.5% serum albumin; type: functional; conditions: ATCC 25922, 4 h, read-out: MBC>99.9
Pseudomonas aeruginosa [35] = experiment: Bactericidal activity against Pseudomonas aeruginosa 25349 clinical isolates incubated for 4 hrs followed by culture spread on agar plates and cultured overnight; type: functional; conditions: Pseudomonas aeruginosa, 25349, 4 h; read-out: MBC>99.9

Substance | IC50 [1] | Activity (Escherichia coli [2]) | MIC95 [3] | HC10 (Erythrocyte) | MBC (Salmonella typhimurium [4]) | MIC95 (Escherichia coli [5]) | log(activity) (Escherichia coli [6]) | log(activity) (Escherichia coli [7]) | Stability (Trypsin) | MBC (Escherichia coli [8]) | MBC (Escherichia coli [9]) | MBC (Pseudomonas aeruginosa [10]) | MBC (Escherichia coli [11]) | MIC95 (Salmonella typhimurium [12]) | MBC (Escherichia coli [13]) | MBC (Escherichia coli [14]) | MBC (Escherichia coli [15]) | MBC [16] | Ratio [17] | MBC (Escherichia coli [18]) | also measured
H-IRPIIRPIIRPIIRPIIRPIIRPIIRPI-NH2 | 126 µM | Active | 2 µM | > 128 µM | 2 µM | 1 µM | 5 | 2 | Stable | 2 µM | 8 µM | 8 µM | 2 µM | 1 µM | 2 µM | 1 µM | 2 µM | 4 µM | 25.25 | 2 µM | MBC (Escherichia coli [19]): 2 µM; Stability [20]: Stable; MBC (Escherichia coli [21]): 2 µM; MBC (Escherichia coli [22]): 2 µM; MBC (Escherichia coli [23]): 2 µM; MIC95 (Pseudomonas aeruginosa [24]): 4 µM; MIC95 (Klebsiella pneumoniae): 2 µM; survival at 5 mg/kg (Escherichia coli [25]): 75%; Ratio [26]: 1136.22; MIC95 (Pseudomonas aeruginosa [27]): 32 µM; MBC (Pseudomonas aeruginosa [28]): 32 µM; MIC95 (Pseudomonas aeruginosa [29]): 32 µM; MBC (Escherichia coli [30]): > 128 µM; Ratio [31]: 51.5; MIC95 (Acinetobacter baumannii): 1 µM; IC50 (RAW264.7): 5650 µM; MIC95 (Salmonella typhimurium [32]): 2 µM; MBC (Escherichia coli [33]): 1 µM; MBC (Escherichia coli [34]): 8 µM; MBC (Pseudomonas aeruginosa [35]): 32 µM
H-LKPLLKPLLKPLLKPLLKPLLKPLLKPL-NH2 | 24.4 µM | inactive | 2 µM | > 128 µM | 2 µM | 1 µM | 1 | 1 | Stable | 1 µM | 8 µM | 2 µM | 1 µM | 2 µM | 1 µM | 1 µM | 2 µM | 4 µM | 9.01 | 1 µM | MBC (Escherichia coli [19]): 1 µM; Stability [20]: Unstable; MBC (Escherichia coli [21]): 1 µM; MBC (Escherichia coli [22]): 2 µM; MBC (Escherichia coli [23]): 1 µM; MIC95 (Pseudomonas aeruginosa [24]): 1 µM; MIC95 (Klebsiella pneumoniae): 1 µM; survival at 5 mg/kg (Escherichia coli [25]): 37.5%; Ratio [26]: 0.58; MIC95 (Pseudomonas aeruginosa [27]): 4 µM; MBC (Pseudomonas aeruginosa [28]): 8 µM; MIC95 (Pseudomonas aeruginosa [29]): 2 µM; MBC (Escherichia coli [30]): > 128 µM; Ratio [31]: 94.5; MIC95 (Acinetobacter baumannii): 1 µM; IC50 (RAW264.7): 1.56 µM; MIC95 (Salmonella typhimurium [32]): 1 µM; MBC (Escherichia coli [33]): 2 µM; MBC (Escherichia coli [34]): 2 µM; MBC (Pseudomonas aeruginosa [35]): 8 µM
H-LRPLLRPLLRPLLRPLLRPLLRPLLRPL-NH2 | 10.7 µM | inactive | 1 µM | 64 µM | 2 µM | 1 µM | 1 | 1 | Stable | 2 µM | 4 µM | 4 µM | > 64 µM | 2 µM | 2 µM | 1 µM | 2 µM | 2 µM | 4.11 | 2 µM | MBC (Escherichia coli [19]): 2 µM; Stability [20]: Unstable; MBC (Escherichia coli [21]): 2 µM; MBC (Escherichia coli [22]): 2 µM; MBC (Escherichia coli [23]): 2 µM; MIC95 (Pseudomonas aeruginosa [24]): 1 µM; MIC95 (Klebsiella pneumoniae): 2 µM; survival at 5 mg/kg (Escherichia coli [25]): 37.5%; Ratio [26]: 0.89; MIC95 (Pseudomonas aeruginosa [27]): 2 µM; MBC (Pseudomonas aeruginosa [28]): 4 µM; MIC95 (Pseudomonas aeruginosa [29]): 2 µM; MBC (Escherichia coli [30]): 16 µM; Ratio [31]: 24.7; MIC95 (Acinetobacter baumannii): 1 µM; IC50 (RAW264.7): 2.29 µM; MIC95 (Salmonella typhimurium [32]): 1 µM; MBC (Escherichia coli [33]): 1 µM; MBC (Escherichia coli [34]): 4 µM; MBC (Pseudomonas aeruginosa [35]): 8 µM
